The record followed here is patent US20110200549A1, “Organic Compounds Suitable For Modulating Fragrance Compositions” (priority 2008, published 2011).

One experiment has as its target T1, CYP2A13 (Homo sapiens, UniProt Q16696).
T1 construct: made in house; host or cells: Sf9 insect cells, recombinant baculovirus
T1 sequence (Q16696 1-494): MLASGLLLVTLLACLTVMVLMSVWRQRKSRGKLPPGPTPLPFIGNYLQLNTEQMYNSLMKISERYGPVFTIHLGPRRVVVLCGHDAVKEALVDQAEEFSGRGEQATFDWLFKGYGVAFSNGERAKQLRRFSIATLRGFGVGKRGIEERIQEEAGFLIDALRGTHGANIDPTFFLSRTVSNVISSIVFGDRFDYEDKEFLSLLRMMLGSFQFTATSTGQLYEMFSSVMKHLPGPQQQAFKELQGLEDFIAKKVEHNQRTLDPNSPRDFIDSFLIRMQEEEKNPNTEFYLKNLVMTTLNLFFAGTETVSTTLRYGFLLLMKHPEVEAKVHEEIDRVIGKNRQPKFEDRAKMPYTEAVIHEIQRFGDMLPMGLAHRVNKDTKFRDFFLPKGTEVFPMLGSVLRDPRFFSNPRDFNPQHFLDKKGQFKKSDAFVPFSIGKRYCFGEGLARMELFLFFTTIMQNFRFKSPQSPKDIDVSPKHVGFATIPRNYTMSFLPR
Description: CYP2A13 inhibition, coumarin 7-hydroxylation (Umbelliferone fluorescence) in microsomes. To be noted: recombinant CYP2A13 + P450 reductase microsomes, coumarin 0.006 mM, 60 min at 37° C.; read-out: CYP2A13 inhibitor activity IC50. In kind it is biochemical. As for the experimental part:
Compounds that inhibit the activity of CYP2A13 are identified by using a standard reaction established for the enzyme. A known substrate is coumarin, and the product of the enzymatic reaction is 7-hydroxy-coumarin (Umbelliferone) which is strongly fluorescent. When a compound is added to the standard reaction and the formation of Umbelliferone is decreased, the compound is identified as an inhibitor, which can also be a competitive substrate of the enzyme. The compound is used at various concentrations and the concentration-dependent decrease in Umbelliferone formation allows to determine the concentration where the activity of the enzyme is reduced to the 50% level (IC50 value).
A test compound (details see Table 1) was incubated with CYP2A13 in the presence of a cytochrome P450 reductase. CYP2A13 and P450 reductase were employed in form of microsomes. CYP2A13 was produced in Sf9 cells using a recombinant baculovirus, under conditions known to the person skilled in the art, for example, as described in WO 2006/007751. P450 reductase is commercially available (BD Biosciences Gentest, USA). Preferably, the two enzymes are coexpressed in the same insect cells and microsomes prepared which contain both enzymes. The art of coexpression of two enzymes is known, and the coexpression CYP2A13 and P450 reductase is described in WO 2006/007751. […] An MOI of 4 for recombinant CYP2A13 baculovirus combined with an MOI of 3.5 for recombinant P450 reductase baculovirus routinely produced microsomes with considerable activity.
Microsomes were used which contained 7 pmoles CYP2A13. Tris buffer (1 M, pH 7.6) and water were added to give a buffer concentration of 0.1M. The test compound was prepared as a 50 mM stock solution in acetonitrile. The concentration of the standard substrate coumarin was 0.006 mM. Several samples of the test compound were prepared at various concentrations to give different final concentrations in the reaction: 0, 0.005, 0.01, 0.02, 0.05, 0.1 and 0.2 mM. The mixture was incubated for 10 min at 37° C. prior to the initiation of the enzymatic reaction by the addition of 0.005 ml of a solution of 50 mM NADPH in water. The final total volume was 0.2 ml, which is suitable for microtiter plate measurements. The samples were incubated for 60 min at 37° C. After 60 min, the enzymatic reaction was stopped by the addition of 0.02 ml cold 50% trichloroacetic acid (TCA) and incubated at 4° C. for 15 min. 0.005 ml of a solution of 50 mM NADPH in water was added to the control reaction which corresponds to the reaction without test compound and without NADPH, and as a consequence, no Umbelliferone was formed. Denatured proteins and other insoluble parts were separated by centrifugation (10 min, 560×g, room-temperature).
The samples were analysed spectrofluorometrically which allows to detect the formation of Umbelliferone as the enzymatic product of coumarin at an excitation wavelength of 340 nm and an emission wavelength of 480 nm.

A further experiment concerns the target T2, CYP2B6 (Homo sapiens, UniProt P20813).
T2 construct: made in house; host or cells: Sf9 insect cells, recombinant baculoviruses, coexpressed with P450 reductase
T2 sequence (P20813 1-491): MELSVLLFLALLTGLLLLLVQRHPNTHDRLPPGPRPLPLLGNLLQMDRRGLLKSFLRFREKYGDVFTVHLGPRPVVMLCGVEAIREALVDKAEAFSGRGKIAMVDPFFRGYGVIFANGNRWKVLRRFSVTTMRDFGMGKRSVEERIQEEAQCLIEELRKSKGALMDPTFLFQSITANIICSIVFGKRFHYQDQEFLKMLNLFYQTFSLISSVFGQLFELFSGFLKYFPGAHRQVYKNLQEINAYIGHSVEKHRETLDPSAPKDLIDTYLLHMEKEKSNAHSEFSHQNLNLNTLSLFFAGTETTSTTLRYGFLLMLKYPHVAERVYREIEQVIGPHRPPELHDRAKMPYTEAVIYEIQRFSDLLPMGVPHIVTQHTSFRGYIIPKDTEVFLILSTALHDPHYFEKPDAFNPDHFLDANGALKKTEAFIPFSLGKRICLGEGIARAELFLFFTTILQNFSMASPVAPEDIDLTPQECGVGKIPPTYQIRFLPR
Description: CYP2B6 inhibition, 7-ethoxy-4-trifluoromethyl-coumarin fluorescence assay in microsomes. To be noted: CYP2B6 + P450 reductase microsomes, 7-ethoxy-4-trifluoromethyl-coumarin 6 μM, 40 min at 37° C.; read-out: CYP2B6 inhibitor activity IC50. In kind it is biochemical. As for the experimental part:
Test compounds that inhibit the activity of CYP2B6 are identified by using the same principle as described in Example 42, first paragraph.
A test compound (details see Table 2) was incubated with CYP2B6 in the presence of a cytochrome P450 reductase. CYP2B6 and P450 reductase are produced using recombinant baculoviruses and co-expressing the two proteins in Sf9 insect cells as described in Example 42. Alternatively, microsomes containing CYP2B6 and the reductase are commercially available (BD Biosciences Gentest, USA). Microsomes were used which contained 1.5 pmoles CYP2B6. Potassium phosphate buffer final concentration was 100 mM, (1M stock, pH 7.4). The test compound was prepared as a 50 mM stock solution in acetonitrile. The concentration of the standard substrate 7-ethoxy-4-trifluoromethyl-coumarin was 6 μM. Several samples of the test compound were prepared at various concentrations to give different final concentrations in the reaction: 0, 0.005, 0.01, 0.02, 0.05, 0.1 and 0.2 mM. […] The final total volume was 0.2 ml, which is suitable for microtiter plate measurements. The samples were incubated for 40 min at 37° C. After 40 min, the enzymatic reaction was stopped by the addition of […] 0.5M Tris-base/acetonitrile (18:72). 0.005 ml of a solution of 50 mM NADPH in water was added to the control reaction which corresponds to the reaction with test compound and enzyme but without NADPH, and as a consequence, no 4-trifluoromethyl-umbelliferone was formed. Denatured proteins and other insoluble parts were separated by centrifugation (5 min, 1800 rpm, at 10° C.).
The samples were analysed spectrofluorometrically which allows to detect the formation of 4-trifluoromethyl-umbelliferone as the enzymatic product at an excitation wavelength of 410 nm and an emission wavelength of 510 nm.

Experiment [1] is described as follows: Sensory panel study with olfactometer (Virtual Aroma Synthesizer): modulation of a fragrance accord by the inhibitor. Set-up: species or system human. To be noted: 10-ingredient fragrance accord with vs without inhibitor, random order, panelists. As for the experimental part:
For each panelist, the inhibitor was tested by itself and confirmed that it was rated as being odorless at the given concentration.
Sensory studies are performed using an olfactometer, such as the Virtual Aroma Synthesizer (VAS) which is described in Chimia (2001) 55:401-405. The instrument allows to combine saturated headspace of different samples from different containers at various dilutions in order to determine the effect on the odor of the mixture produced in headspace. For the particular example, in one container the fragrance accord (1 gram) was adsorbed on beads (4 grams) and in another container the inhibitor N-(cyclopropylmethyl)-N-pentylacetamide was adsorbed on beads (4 grams).
Panelists were selected having different levels of experience and expertise in smelling, rating, describing and evaluating odorants, accords and perfumes. Panelists smelled the accord with or without the inhibitor at random order, not knowing which one was presented. Before and after the session, it was confirmed that the inhibitor alone was odorless.

Regarding `CCCCCN(CC1CC1)C(C)=O` [Ex. 10, N-(cyclopropylmethyl)-N-pentylacetamide], the figures for the IC50 at CYP2A13 and at CYP2B6 were 0.5 µM and 87 µM, respectively. Besides, in experiment [1], the “Effect on the odor of the fragrance accord attributed to the presence of the inhibitor” value is “intensifying or boosting the fruitiness of the accord”.

What is called IC50 is the concentration that inhibits the measured activity by half.
